We go through 21 molecules from patent US11597724B2, “Herbicidally active 3-phenylisoxazoline-5-carboxamides of tetrahydro and dihydrofuran carboxylic acids and esters” (Bayer Aktiengesellschaft, priority 2017, dated 2023).

Holding throughout (format): in vivo
For test [1], the system named is Echinochloa crus-galli. The experiment in a line: Pre-emergence herbicidal activity against ECHCG. Particulars: dosage 80 g/ha, scored visually after about 3 weeks vs untreated controls (100% = plants have died, 0% = like control plants); for pest or weed control at 80 g/ha: Echinochloa crus-galli, 504 h. An excerpt: (§1) 1. Pre-Emergence Herbicidal Action and Crop Plant Compatibility Seeds of monocotyledonous and dicotyledonous weed plants and crop plants are placed in plastic or wood fiber pots and covered with soil. The compounds of the invention, formulated in the form of wettable powders (WP) or as emulsion concentrates (EC), are then applied onto the surface of the covering soil as aqueous suspension or emulsion with addition of 0.5% additive at a water application rate of 600 l/ha (converted). After the treatment, the pots are placed in a greenhouse and kept under good growth conditions for the trial plants. After about 3 weeks, the effect of the preparations is scored visually in comparison with untreated controls as percentages. For example, 100% activity=the plants have died, 0% activity=like control plants. ECHCG: Echinochloa crus-galli HORMU: Hordeum murinum

Test [2] relates to Lolium rigidum. As to the kind of experiment: Pre-emergence herbicidal activity against LOLRI. Particulars: dosage 80 g/ha; for pest or weed control at 80 g/ha: Lolium rigidum, 504 h.
Source text: as §1, with “LOLRI: Lolium rigidum PHBPU: Pharbitis purpurea” for “ECHCG: Echinochloa crus-galli HORMU: Hordeum murinum”

Test [3] concerns Hordeum murinum. The experiment in a line: Pre-emergence herbicidal activity against HORMU. Particulars: dosage 80 g/ha; for pest or weed control at 80 g/ha: Hordeum murinum, 504 h.
Source text: as §1

Test [4] is described as follows: Pre-emergence treatment, summary over harmful plants. Particulars: 504 h, application rate of 0.08 kg of active substance or less per hectare, read-out: herbicidal action, pre-emergence treatment (very good activity).
Source text: 1. Pre-Emergence Herbicidal Action and Crop Plant Compatibility
as §1, with “Seeds” for “1. Pre-Emergence Herbicidal Action and Crop Plant Compatibility Seeds”, “plants.” for “plants. ECHCG: Echinochloa crus-galli HORMU: Hordeum murinum”
As shown by the results, compounds according to the invention such as, for example, the compounds No. I-21 and other compounds from the tables (for example I-10, I-26, I-09, I-30, I-28, I-29, I-27, I-01, I-06, I-34, I-19, I-11, I-36, I-37, I-38, I-41, I-42, I-43, I-44, I-46, I-49) have, when used for pre-emergence treatment, very good activity (80% to 100% herbicidal action) against harmful plants such as Abutilon theophrasti, Alopecurus myosuroides, Amaranthus retroflexus, Avena fatua, Echinochloa crus-galli, Hordeum murinum, Lolium rigidum, Pharbitis purpurea, Polygonum convolvulus, Setaria viridis, Stellaria media, Veronica persica and Viola tricolor at an application rate of 0.08 kg of active substance or less per hectare.

For test [5], the system named is Pharbitis purpurea. As to the kind of experiment: Pre-emergence herbicidal activity against PHBPU. Particulars: dosage 80 g/ha.
Source text: as §1, with “LOLRI: Lolium rigidum PHBPU: Pharbitis purpurea” for “ECHCG: Echinochloa crus-galli HORMU: Hordeum murinum”

Consider `C=C[C@]1(C(=O)N[C@H]2CO[C@@H](C(=O)OC(C)(C)C)C2)CC(c2cc(F)cc(F)c2)=NO1` (mixture of isomers) [I-38, tert-butyl cis-4-[[(5S)-3-(3,5-difluorophenyl)-5-vinyl-4H-isoxazole-5-carbonyl]amino]tetrahydrofuran-2-carboxylate], for which the pest or weed control at 80 g/ha in test [1] is 100%; in test [2], 100%; in test [3], 90%; in test [4], 80 to 100%.
For the molecule `CC1(C(=O)NC2COC(C(=O)OCc3ccccc3)C2)CC(c2cc(F)cc(F)c2)=NO1` (mixture of isomers) [I-45], the “Pre-emergence herbicidal activity against ECHCG in %” value in test [1] amounted to 100%. Besides, in test [2], the “Pre-emergence herbicidal activity against LOLRI in %” value is listed as 100%. Besides, the “Pre-emergence herbicidal activity against PHBPU in %” value in test [5] stood at 90%. In test [3], the “Pre-emergence herbicidal activity against HORMU in %” value came to 100%.
In the case of `CCOC(=O)[C@H]1C[C@@H](NC(=O)C2(C)CC(c3cccc(F)c3)=NO2)CO1` (mixture of isomers) [I-30, ethyl cis-4-[[(5RS)-3-(3-fluorophenyl)-5-methyl-4H-isoxazole-5-carbonyl]amino]tetrahydrofuran-2-carboxylate], the pest or weed control at 80 g/ha in test [2] was 100%; in test [3], 90%; in test [4], 80 to 100%.
As to `CC1(C(=O)NC2COC(C(=O)O)C2)CC(c2cc(F)cc(F)c2)=NO1` (mixture of isomers) [I-41], the “Pre-emergence herbicidal activity against ECHCG in %” value in test [1] came to 100%. Further, the “Pre-emergence herbicidal activity against LOLRI in %” value in test [2] is 100%. In test [5], the “Pre-emergence herbicidal activity against PHBPU in %” value stood at 90%. Besides, the “Pre-emergence herbicidal activity against HORMU in %” value in test [3] came to 100%.
Consider `CC(C)(C)OC(=O)C1CC(NC(=O)C2(C)CC(c3cc(F)cc(F)c3)=NO2)CO1` (mixture of isomers) [I-42], for which the “Pre-emergence herbicidal activity against ECHCG in %” value in test [1] is 100%. Further, the “Pre-emergence herbicidal activity against LOLRI in %” value in test [2] is 100%. For the same molecule, the “Pre-emergence herbicidal activity against PHBPU in %” value in test [5] is recorded as 90%. Besides, the “Pre-emergence herbicidal activity against HORMU in %” value in test [3] turned out to be 100%.
Turning to `C=C[C@]1(C(=O)N[C@H]2CO[C@@H](C(=O)OCC)C2)CC(c2cc(F)cc(F)c2)=NO1` (mixture of isomers) [I-35, ethyl cis-4-[[(5S)-3-(3,5-difluorophenyl)-5-vinyl-4H-isoxazole-5-carbonyl]amino]tetrahydrofuran-2-carboxylate], the pest or weed control at 80 g/ha amounted to 100% in test [1]; 100% in test [2]; 90% in test [5] (Ipomoea purpurea, 504 h); 100% in test [3].
With `CC(C)OC(=O)C1CC(NC(=O)C2(C)CC(c3cc(F)cc(F)c3)=NO2)CO1` (stereo not shown) [I-44], in test [1], the “Pre-emergence herbicidal activity against ECHCG in %” value is recorded as 90%. For the same molecule, in test [2], the “Pre-emergence herbicidal activity against LOLRI in %” value is 100%. In addition, in test [5], the “Pre-emergence herbicidal activity against PHBPU in %” value is given as 80%. Also, the “Pre-emergence herbicidal activity against HORMU in %” value in test [3] was 100%.
In the case of `COC(=O)C1=C[C@@H](NC(=O)C2(C)CC(c3cccc(F)c3)=NO2)CO1` (stereo partly drawn) [I-46, methyl (3R)-3-[[3-(3-fluorophenyl)-5-methyl-4H-isoxazole-5-carbonyl]amino]-2,3-dihydrofuran-5-carboxylate], the pest or weed control at 80 g/ha in test [1] was 90%; in test [2] it was 100%; in test [3] it was 100%; in test [4] it was 80 to 100%.
In test [3], `CC(C)(C)OC(=O)[C@H]1C[C@@H](NC(=O)C2(C)CC(c3cccc(F)c3)=NO2)CO1` (mixture of isomers) [I-33, tert-butyl cis-4-[[(5RS)-3-(3-fluorophenyl)-5-methyl-4H-isoxazole-5-carbonyl]amino]tetrahydrofuran-2-carboxylate] displayed a pest or weed control at 80 g/ha of 80%.
On to `CC1(C(=O)N[C@H]2CO[C@@H](C(=O)OCc3ccccc3)C2)CC(c2cccc(F)c2)=NO1` (mixture of isomers) [I-34, benzyl cis-4-[[(5RS)-3-(3-fluorophenyl)-5-methyl-4H-isoxazole-5-carbonyl]amino]tetrahydrofuran-2-carboxylate], for which the pest or weed control at 80 g/ha in test [1] is 80%; in test [2] it was 100%; in test [4] it was 80 to 100%.
With `COC(=O)C1=C[C@H](NC(=O)C2(C)CC(c3cccc(F)c3)=NO2)CO1` (stereo partly drawn) [I-39, methyl (3S)-3-[[3-(3-fluorophenyl)-5-methyl-4H-isoxazole-5-carbonyl]amino]-2,3-dihydrofuran-5-carboxylate], the pest or weed control at 80 g/ha in test [2] and in test [3] was 100% throughout.
Turning to `C=C[C@]1(C(=O)N[C@H]2CO[C@@H](C(=O)OC)C2)CC(c2cc(F)cc(F)c2)=NO1` (single isomer, unassigned) [I-12], the pest or weed control at 80 g/ha was found to be 90% in test [1], 100% in test [2] and 100% in test [3].
For `COC(=O)[C@H]1C[C@@H](NC(=O)C2(C)CC(c3cc(F)cc(F)c3)=NO2)CO1` (relative stereo) [I-01, methyl cis-4-[[3-(3,5-difluorophenyl)-5-methyl-4H-isoxazole-5-carbonyl]amino]tetrahydrofuran-2-carboxylate], the values for the pest or weed control at 80 g/ha in test [1] and in test [4] were 80% and 80 to 100%, respectively.
As to `COC(=O)C1COCC1NC(=O)C1(OC)CC(c2cc(F)cc(F)c2)=NO1` (stereo not shown) [I-27, methyl 4-[[3-(3,5-difluorophenyl)-5-methoxy-4H-isoxazole-5-carbonyl]amino]tetrahydrofuran-3-carboxylate], in test [4], the pest or weed control at 80 g/ha was 80 to 100%.
The same measure, in the same setting: the same measure for `COC(=O)C1COCC1NC(=O)C1(C)CC(c2cc(F)cc(F)c2)=NO1` (stereo not shown) [I-19, methyl 4-[[3-(3,5-difluorophenyl)-5-methyl-4H-isoxazole-5-carbonyl]amino]tetrahydrofuran-3-carboxylate]: 80 to 100%.
Regarding `COC(=O)C1CC(NC(=O)C2(C(C)(F)F)CC(c3cc(F)cc(F)c3)=NO2)CO1` (stereo not shown) [I-49], the “Pre-emergence herbicidal activity against ECHCG in %” value in test [1] is recorded as 100%. Also, the “Pre-emergence herbicidal activity against LOLRI in %” value in test [2] came out at 100%. Besides, the “Pre-emergence herbicidal activity against PHBPU in %” value in test [5] was determined as 90%. For the same molecule, the “Pre-emergence herbicidal activity against HORMU in %” value in test [3] is 100%.
With `CCOC(=O)C1CC(NC(=O)C2(C)CC(c3cc(F)cc(F)c3)=NO2)CO1` (mixture of isomers) [I-43], the “Pre-emergence herbicidal activity against ECHCG in %” value in test [1] amounted to 100%. In addition, the “Pre-emergence herbicidal activity against LOLRI in %” value in test [2] was found to be 100%. Further, the “Pre-emergence herbicidal activity against HORMU in %” value in test [3] was determined as 90%.
`COC(=O)C1CC(NC(=O)C2(C)CC(c3cc(F)cc(F)c3)=NO2)CO1` (mixture of isomers) [I-48]: the “Pre-emergence herbicidal activity against ECHCG in %” value in test [1] is listed as 90%. For the same molecule, the “Pre-emergence herbicidal activity against LOLRI in %” value in test [2] is recorded as 100%. For the same molecule, in test [5], the “Pre-emergence herbicidal activity against PHBPU in %” value is 90%. For the same molecule, in test [3], the “Pre-emergence herbicidal activity against HORMU in %” value is reported as 100%.
With `COC(=O)[C@@]1(OC)C[C@@H](NC(=O)C2(C)CC(c3cccc(F)c3)=NO2)CO1` (stereo partly drawn) [I-47, methyl (2R,4R)-4-[[3-(3-fluorophenyl)-5-methyl-4H-isoxazole-5-carbonyl]amino]-2-methoxytetrahydrofuran-2-carboxylate], the pest or weed control at 80 g/ha in test [3] was determined as 90%.
For the molecule `CC(C)OC(=O)[C@H]1C[C@@H](NC(=O)C2(C)CC(c3cccc(F)c3)=NO2)CO1` (mixture of isomers) [I-32, isopropyl cis-4-[[(5RS)-3-(3-fluorophenyl)-5-methyl-4H-isoxazole-5-carbonyl]amino]tetrahydrofuran-2-carboxylate], the pest or weed control at 80 g/ha in test [2] came out at 100%.
For the molecule `COC(=O)C1COCC1NC(=O)C1(OC)CC(c2cc(Cl)cc(Cl)c2)=NO1` (stereo not shown) [I-29, methyl 4-[[3-(3,5-dichlorophenyl)-5-methoxy-4H-isoxazole-5-carbonyl]amino]tetrahydrofuran-3-carboxylate], the pest or weed control at 80 g/ha in test [4] is 80 to 100%.
